Key:
[1] = Thermodynamic stability from DSC (melting point, enthalpy of fusion; Burger-Ramberger rules); type: physicochemical; conditions: heating rate 10° C./min, 30° C. to 140° C., Burger-Ramberger rules applied
Text: Polymorph form (II) of rotigotine can be further characterized and distinguished from form (I) by differential scanning calorimetry (DSC). A DSC thermogram of form (II) is provided in FIG. 5, and was obtained using DSC techniques known to those of skill in the art. One of skill in the art would readily be able to determine the conditions necessary to obtain a DSC thermogram of form (II). A variety of differential scanning calorimeters are available to those of skill in the art and include the Differential Scanning Calorimeter of Mettler Toledo (DSC822e) using temperatures of about 25° C. to about 250° C., in particular about 30° C. to about 140° C. and temperature increases at various rates including 1° C./min, 10° C./min, 20° C./min, among other instruments and conditions. One skilled in the art would recognize that the peak positions in the DSC thermogram can vary depending upon kinetic factors such as, for example, heating rate and particle size. Thermal behavior investigations of rotigotine of polymorphic form (I) (batch 1608726) and of polymorphic form (II) (batch 7769396) were performed on a Mettler Toledo DSC system and on a TA instrument (Q-1000). The analyses were carried out with a heating rate of 10° C./min in pierced aluminum crucibles in a temperature range from 30° C. to 140° C.

[2] = Solubility in EtOH at room temperature; type: physicochemical

SMILES	thermodynamic stability relative to form (I) [1]	thermodynamic stability relative to form (I) ([1]; listed as form (II))	solubility in EtOH [2]	solubility in EtOH relative to polymorphic form (I) ([2]; form (II) versus form (I))
CCCN(CCc1cccs1)[C@H]1CCc2c(O)cccc2C1 [polymorphic form (II), (−)-5,6,7,8-tetrahydro-6-[propyl-[2-(2-thienyl)ethyl]amino]-1-naphthalenol]	thermodynamically more stable than polymorphic form (I) at all considered temperatures	thermodynamically more stable than form (I) at any temperature considered	60 to 100 mg/mL	at least five times lower
CCCN(CCc1cccs1)[C@H]1CCc2c(O)cccc2C1 [polymorphic form (I), (−)-5,6,7,8-tetrahydro-6-[propyl-[2-(2-thienyl)ethyl]amino]-1-naphthalenol, reference compound]			about 500 mg/ml	

— patent publication US8232414B2, “Polymorphic form of rotigotine and process for production” (UCB Pharma GmbH, priority 2007, dated 2012)
